Key:
[1] = tested on: NKX6.1-positive pancreatic endoderm cells derived from human iPS cells; assay: Screening of senescence-related reagents; format: cell-based
Experimental: FIG. 2-A A schematic diagram illustrating senescence-related reagent screening. […] After the elapse of one week, the cells were counted under a fluorescence microscope. Cells were differentiated to a pancreatic endoderm cell level using a stepwise differentiation-inducing method, and were then re-seeded on a 24-well plate at 2×10^5/well. The following culture media were added to these cultured cells, and the cells were cultured for 1 week. […] After fixed using 4% PFA, the cells were subjected to β-gal staining and NKX6.1 antibody immunostaining, and fluorescently stained images were acquired using BZ-800 (Keyence). The number of NKX6.1-positive cells, the NKX6.1-positive ratio, and the β-gal-positive ratio were calculated using the BZ-[…]/Macro Cell Count function of that microscope. FIGS. 2-A and 3-A show the outline of this procedure. A reagent enabling proliferation of pancreatic endoderm cells derived from human iPS cells was searched for in the senescence-related reagents. […] Then, (1) the number of NKX6.1-positive cells, or (2) the ratio of NKX6.1-positive cells and the ratio of β gal-positive cells were measured after the culture. FIGS. 2-B to 2-D show the results.

[2] = tested on: pancreatic endoderm cells derived from ES cells (KhES-3 line); assay: Expansion culture of pancreatic endoderm cells derived from ES cells; format: cell-based, human
Experimental: PDX1^+/NKX6.1^+ pancreatic endoderm cells were produced from iPS cells (585A1 line) or ES cells (KhES-3 line) on a 6-well plate using the method by Toyoda et al. (Toyoda T, et al. Stem Cell Reports 2017). Briefly, the undifferentiated cells above were seeded at 1×10^6/well on a 6-well plate coated with iMatrix-511 silk. The cells were cultured in RPMI to which an S1 culture medium (1×B-27 Supplement, 100 U/ml penicillin/streptomycin, 100 ng/ml activin A, and CHIR99021 (Day 1: 3 μM, Days 2 and 3: 1 μM, and Day 4: 0 μM)) had been added for 4 days, in an S2 culture medium (improved MEM to which 0.5×B-27 Supplement, 100 U/ml penicillin/streptomycin, and 50 ng/ml KGF/FGF7 had been added) for 5 days, and in an S3 culture medium (improved MEM to which 0.5×B-27 Supplement, 100 U/ml penicillin/streptomycin, 50 ng/ml KGF/FGF7, 0.2 μM LDN-193189, 0.1 μM SANT-1, and 10 nM TTNPB had been added) for 2 days. The cells were detached from the 6-well plate using trypsin, and were reseeded on a 6-well plate coated with iMatrix-511 silk at 1.5×10^6/well using the S3 culture medium again. […] (5) The cells were suspended in improved MEM (containing 10 μM Y-27632, 0.5×B-27 Supplement, and 100 U/ml penicillin/streptomycin), and were counted. […]

C[C@@H](N)[C@H]1CC[C@H](C(=O)Nc2ccncc2)CC1 [Y-27632]
ratio of the pancreatic endoderm cells (NKX6.1-positive) ([1]; 50 μM, 1 week, FIG. 2-C): most effective | ratio of β gal-positive cells (senescent cells) ([1]; 1 week, FIG. 2-D): exhibited an effect of reducing the ratio of β gal-positive cells | concentration most suitable for the proliferation ([1]; FIG. 2-B): 50 µM | number of NKX6.1-positive cells (pancreatic endoderm cells) ([1]; culture for 1 week, 24-well plate, FIG. 2-B): significantly increased | expansion culture of the pancreatic endoderm cells ([2]; FIG. 4-H): similarly possible | cell (nuclear) shape ([2]; Y-27632 10 μM, passaged 5 times (5 weeks), FIGS. 5-B and 5-C): changed their shape (elongated elliptical shape)

Reference: patent publication US20260097083A1, “METHOD FOR PRODUCING PANCREATIC ENDODERM CELLS” (Kyoto University, priority 2022, published 2026)
